Experimental data taken from US20100056527A1, “BENZOFURAN COMPOUNDS USEFUL IN THE TREATMENT OF CONDITIONS MEDIATED BY THE ACTION OF PGE2 AT THE EP1 RECEPTOR” (Glaxo Group Limited, priority 2007, published 2010).

The compounds below were run against T1, human EP1 receptor (Homo sapiens, UniProt P34995) (assay: human EP1 calcium mobilization assay (FLIPR, PGE2-induced [Ca2+]i)). Conditions: CHO-K1 cells transfected with EP1 cDNA; antagonism of PGE2; averages of a number of experiments.
T1 construct: expressed in transfected cells; host or cells: CHO-K1 cells (membrane fraction)
T1 sequence (P34995 1-402): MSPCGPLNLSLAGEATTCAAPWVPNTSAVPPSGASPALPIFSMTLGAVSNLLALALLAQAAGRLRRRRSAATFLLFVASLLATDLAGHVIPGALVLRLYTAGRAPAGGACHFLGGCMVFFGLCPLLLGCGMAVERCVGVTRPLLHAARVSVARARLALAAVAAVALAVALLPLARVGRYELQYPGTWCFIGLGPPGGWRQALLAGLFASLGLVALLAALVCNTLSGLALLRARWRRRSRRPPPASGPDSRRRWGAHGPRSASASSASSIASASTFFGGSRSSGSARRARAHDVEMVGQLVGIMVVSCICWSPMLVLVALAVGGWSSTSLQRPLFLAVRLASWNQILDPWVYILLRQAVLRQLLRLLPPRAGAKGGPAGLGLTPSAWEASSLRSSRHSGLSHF
Type: cell-based
Method: Briefly, the antagonist properties of compounds are assessed by their ability to inhibit the mobilization of intracellular calcium ([Ca^2+]i) in response to activation of EP1 or EP3 receptors by the natural agonist hormone prostaglandin E2 (PGE2). Increasing concentrations of antagonist reduce the amount of calcium that a given concentration of PGE2 can mobilize. The net effect is to displace the PGE2 concentration-effect curve to higher concentrations of PGE2. The amount of calcium produced is assessed using a calcium-sensitive fluorescent dye such as Fluo-4, AM and a suitable instrument such as a Fluorimetric Imaging Plate Reader (FLIPR). Increasing amounts of [Ca^2+]i produced by receptor activation increase the amount of fluorescence produced by the dye and give rise to an increasing signal. The signal may be detected using the FLIPR instrument and the data generated may be analyzed with suitable curve-fitting software.
The human EP1 or EP3 calcium mobilization assay (hereafter referred to as ‘the calcium assay’) utilises Chinese hamster ovary-K1 (CHO—K1) cells into which a stable (PClN; BioTechniques 20 (1996): 102-110) vector containing either EP1 or EP3 cDNA has previously been transfected. Cells are cultured in suitable flasks containing culture medium such as DMEM:F-12 supplemented with 10% v/v foetal calf serum, 2 mM L-glutamine, 0.25 mg/ml geneticin, 100 μM flurbiprofen and 10 μg/ml puromycin.
For assay, cells are harvested using a proprietary reagent that dislodges cells such as Versene. Cells are re-suspended in a suitable quantity of fresh culture media for introduction into a 384-well plate. Following incubation for 24 hours at 37° C. the culture media is replaced with a medium containing Fluo-4 and the detergent pluronic acid, and a further incubation takes place. Concentrations of compounds are then added to the plate in order to construct concentration-effect curves. This may be performed on the FLIPR in order to assess the agonist properties of the compounds. Concentrations of PGE2 are then added to the plate in order to assess the antagonist properties of the compounds.
The data so generated may be analyzed by means of a computerised curve-fitting routine. The concentration of compound that elicits a half-maximal inhibition of the calcium mobilization induced by PGE2 (pIC50) may then be estimated.
The compounds of Examples 1-28 and 30-156 were tested in the human EP1 calcium mobilization assay. The results are expressed as functional pKi values. A functional pKi is the negative logarithms of the antagonist dissociation constant as determined in the human EP1 calcium mobilization assay. The results given are averages of a number of experiments.

| functional pKi in the human EP1 calcium mobilization assay | Compound |
| --- | --- |
| did not show activity | Cc1cc(C(=O)NC(C)(C)C)nn1Cc1cc(Cl)cc2cc(-c3ccc(F)cc3F)oc12 [Example 112, 1-{[5-chloro-2-(2,4-difluorophenyl)-1-benzofuran-7-yl]methyl}-N-(1,1-dimethylethyl)-5-methyl-1H-pyrazole-3-carboxamide] |
| did not show activity | Cc1cc(C(=O)Nc2ccncc2)nn1Cc1cc(Cl)cc2cc(-c3ccccc3)oc12 [Example 68, 1-[(5-chloro-2-phenyl-1-benzofuran-7-yl)methyl]-5-methyl-N-4-pyridinyl-1H-pyrazole-3-carboxamide] |
| did not show activity | CC(C)(C)OC(=O)Nc1ccc(Cc2cc(Cl)cc3cc(-c4ccccc4)oc23)o1 [Example 156, 1,1-Dimethylethyl {5-[(5-chloro-2-phenyl-1-benzofuran-7-yl)methyl]-2-furanyl}carbamate] |
| did not show activity | Cl.N#Cc1ccc(-c2cc3cc(Cl)cc(Cc4ccc(C(=O)NCC5CCNCC5)o4)c3o2)cc1 [Example 37, 5-{[5-Chloro-2-(4-cyanophenyl)-1-benzofuran-7-yl]methyl}-N-(4-piperidinylmethyl)-2-furancarboxamide hydrochloride] |
